Values quoted from earlier work, collected in US6013628A, “Method for treating conditions of the eye using polypeptides” (Regents of the University of Minnesota, priority 1995, dated 2000).

What was measured:
[1] = tested on: retinal pigmented epithelial cells; settings: Avery et al. 1986; cited from earlier work
fibroblasts = settings: cited from earlier work
[2] = tested on: human scleral fibroblasts; settings: cited from earlier work
[3] = tested on: retinal pigmented epithelial cells; settings: cited from earlier work
[4] = tested on: proliferative vitreoretinopathy rabbit model; settings: cited from earlier work

Substance | Adhesion of retinal pigmented epithelial cells to fibronectin, type I collagen, type II collagen and lens capsule basement membrane [1] | Fibroblast-mediated contraction of type I collagen gels (fibroblasts) | Proliferation of human scleral fibroblasts [2] | Proliferation of retinal pigmented epithelial cells [3] | Postoperative bleeding ([4]; rabbit, in vivo) | Development of intraocular fibrin membranes ([4]; standardized PVR rabbit model)
Arg-Gly-Asp-Ser (RGDS) | inhibit the adhesion | – | – | – | – | –
heparin | – | inhibit | inhibits the proliferation | inhibits the proliferation | increased postoperative bleeding was observed | prevent the development of intraocular fibrin membranes
